Experimental data from PubChem BioAssay AID248 (DTP/NCI, 2004).
Values joined by “and” are separate entries in the source; they are usually repeats but may differ in a detail not shown here. Identical values can stand only once. Inconclusive results and toxic doses are left out. Cut-off read from the data, not from the text of the source: active = T/C of 150% or more; inactive = T/C below 125%. Peptide text beside a SMILES is read from it. * marks the point of attachment. Cbz = O=C(OCc1ccccc1)*

Tested on: L1210 leukemia ip in BDF1 mice, survival T/C
Assay: NCI In Vivo Anticancer Drug Screen. Data for tumor model L1210 Leukemia (intraperitoneal) in B6D2F1 (BDF1) mice
Details: endpoint: mean survival time, higher = longer survival
In short: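 Tumor was transplanted into mice, which were then dosed with test compound or vehicle alone. Survival was recorded for each group, and the treated figure was expressed relative to the control figure.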

[1] = dose: 100.0 mg/kg/injection, schedule: Q01DX009 (ip), vehicle: saline with Tween-80
[2] = dose: 200.0 mg/kg/injection, schedule: Q01DX009 (ip), vehicle: saline with Tween-80
[3] = dose: 400.0 mg/kg/injection, schedule: Q01DX009 (ip), vehicle: saline with Tween-80
[4] = dose: 100.0 mg/kg/injection, schedule: Q04DX002 (ip), vehicle: Klucel (hydroxypropylcellulose) (HPC)
[5] = dose: 200.0 mg/kg/injection, schedule: Q04DX002 (ip), vehicle: Klucel (hydroxypropylcellulose) (HPC)
[6] = dose: 400.0 mg/kg/injection, schedule: Q04DX002 (ip), vehicle: Klucel (hydroxypropylcellulose) (HPC)
[7] = dose: 25.0 mg/kg/injection, schedule: Q01DX001 (ip), vehicle: carboxymethylcellulose (CMC)
[8] = dose: 50.0 mg/kg/injection, schedule: Q01DX001 (ip), vehicle: carboxymethylcellulose (CMC)
[9] = dose: 100.0 mg/kg/injection, schedule: Q01DX001 (ip), vehicle: carboxymethylcellulose (CMC)
[10] = dose: 100.0 mg/kg/injection, schedule: Q01DX009 (ip), vehicle: saline
[11] = dose: 100.0 mg/kg/injection, schedule: Q04DX003 (ip), vehicle: saline
[12] = dose: 100.0 mg/kg/injection, schedule: Q01DX009 (ip), vehicle: Klucel (hydroxypropylcellulose) (HPC)
[13] = dose: 200.0 mg/kg/injection, schedule: Q01DX009 (ip), vehicle: Klucel (hydroxypropylcellulose) (HPC)
[14] = dose: 400.0 mg/kg/injection, schedule: Q01DX009 (ip), vehicle: Klucel (hydroxypropylcellulose) (HPC)
[15] = dose: 100.0 mg/kg/injection, schedule: Q04DX003 (ip), vehicle: saline sonified
[16] = dose: 200.0 mg/kg/injection, schedule: Q04DX003 (ip), vehicle: saline sonified
[17] = dose: 400.0 mg/kg/injection, schedule: Q04DX003 (ip), vehicle: saline sonified
[18] = dose: 200.0 mg/kg/injection, schedule: Q01DX009 (ip), vehicle: saline
[19] = dose: 400.0 mg/kg/injection, schedule: Q01DX009 (ip), vehicle: saline
[20] = dose: 100.0 mg/kg/injection, schedule: Q04DX003 (ip), vehicle: Klucel (hydroxypropylcellulose) (HPC)
[21] = dose: 200.0 mg/kg/injection, schedule: Q04DX003 (ip), vehicle: Klucel (hydroxypropylcellulose) (HPC)

Measured: T/C

CC(=O)OC(CNCC(=O)O)C(Cl)(Cl)Cl (centres undefined)
inactive: [1] 90 % of control | [2] 95 % of control | [3] 97 % of control

NC(Cc1cnc(N=Nc2ccc(C(=O)O)cc2)[nH]1)C(=O)O (centres undefined)
inactive: dose: 50.0 mg/kg/injection, schedule: Q01DX009 (ip), vehicle: saline with Tween-80 100 % of control | [1] 95 % of control | [2] 103 % of control

O=C/C(=C/Nc1ccc(C(=O)O)cc1)[N+](=O)[O-]
inactive: [4] 109 % of control | [5] 98 % of control | [6] 98 % of control

CSc1ccccc1N=Cc1c(N)ccc(C)c1C
inactive: dose: 100.0 mg/kg/injection, schedule: Q01DX001 (ip), vehicle: saline with Tween-80 98 % of control | dose: 200.0 mg/kg/injection, schedule: Q01DX001 (ip), vehicle: saline with Tween-80 95 % of control | dose: 400.0 mg/kg/injection, schedule: Q01DX001 (ip), vehicle: saline with Tween-80 98 % of control

CN1C(=O)NC(=O)C12CCNCC2
inactive: dose: 100.0 mg/kg/injection, schedule: Q01DX001 (ip), vehicle: saline 97 % of control | dose: 200.0 mg/kg/injection, schedule: Q01DX001 (ip), vehicle: saline 103 % of control | dose: 400.0 mg/kg/injection, schedule: Q01DX001 (ip), vehicle: saline 101 % of control

CCNC(=O)Oc1ccc(S(=O)(=O)F)cc1Cl
inactive: [7] 91 % of control | [8] 107 % of control | [9] 98 % of control and 100 % of control

CC(C)(C)c1cc(/C=C/C(=O)O)cc(C(C)(C)C)c1O
inactive: dose: 100.0 mg/kg/injection, schedule: Q01DX001 (ip), vehicle: Klucel (hydroxypropylcellulose) (HPC) 107 % of control | dose: 200.0 mg/kg/injection, schedule: Q01DX001 (ip), vehicle: Klucel (hydroxypropylcellulose) (HPC) 96 % of control | dose: 400.0 mg/kg/injection, schedule: Q01DX001 (ip), vehicle: Klucel (hydroxypropylcellulose) (HPC) 90 % of control

CCOc1ccc2c(ccc(/C=C\c3cc(C)c4cccnc4c3O)[n+]2C)c1
inactive: [7] 104 % of control | [8] 109 % of control | [9] 93 % of control

NC1CC1c1ccccc1 (centres undefined)
inactive: dose: 12.5 mg/kg/injection, schedule: Q04DX003 (ip), vehicle: saline 98 % of control and 93 % of control | dose: 25.0 mg/kg/injection, schedule: Q01DX009 (ip), vehicle: saline 97 % of control | dose: 25.0 mg/kg/injection, schedule: Q04DX003 (ip), vehicle: saline 96 % of control and 100 % of control and 92 % of control | dose: 50.0 mg/kg/injection, schedule: Q01DX009 (ip), vehicle: saline 105 % of control | dose: 50.0 mg/kg/injection, schedule: Q04DX003 (ip), vehicle: saline 96 % of control and 95 % of control and 100 % of control | [10] 105 % of control | [11] 86 % of control and 103 % of control

Nc1nnc(Sc2n[nH]c(=O)[nH]c2=O)s1
inactive: [9] 98 % of control | dose: 200.0 mg/kg/injection, schedule: Q01DX001 (ip), vehicle: carboxymethylcellulose (CMC) 102 % of control | dose: 400.0 mg/kg/injection, schedule: Q01DX001 (ip), vehicle: carboxymethylcellulose (CMC) 105 % of control

CCOC(=O)c1cc(OCC)c2c(ccc3cc(OC)ccc32)n1
inactive: [12] 96 % of control | [13] 94 % of control | [14] 93 % of control

CC(C)C(NC(=O)C1CCCN1C(=O)OCc1ccccc1)C(=O)O (stereo not drawn) (Cbz-Pro-Val-OH; configuration not given here)
inactive: dose: 100.0 mg/kg/injection, schedule: Q01DX009 (ip), vehicle: saline sonified 102 % of control | [15] 97 % of control | dose: 200.0 mg/kg/injection, schedule: Q01DX009 (ip), vehicle: saline sonified 92 % of control | [16] 96 % of control | dose: 400.0 mg/kg/injection, schedule: Q01DX009 (ip), vehicle: saline sonified 97 % of control | [17] 97 % of control

CCOC(=O)c1cc(=O)[nH]c2cc(N)ccc12
inactive: [12] 86 % of control | [13] 89 % of control | [14] 86 % of control

Cc1c(Cl)cc(C(C)C)c(O)c1CN1CCCCC1
inactive: dose: 222.0 mg/kg/injection, schedule: Q01DX Z (ip), vehicle: saline 92 % of control | dose: 333.0 mg/kg/injection, schedule: Q01DX Z (ip), vehicle: saline 91 % of control | dose: 500.0 mg/kg/injection, schedule: Q01DX Z (ip), vehicle: saline 91 % of control

O=C1O[B-](c2ccccc2)(c2ccccc2)[NH2+]C1Cc1ccc(O)cc1 (centres undefined)
inactive: dose: 75.0 mg/kg/injection, schedule: Q01DX001 (ip), vehicle: acetone 91 % of control | dose: 150.0 mg/kg/injection, schedule: Q01DX001 (ip), vehicle: acetone 96 % of control | dose: 300.0 mg/kg/injection, schedule: Q01DX001 (ip), vehicle: acetone 95 % of control

CC(=O)NS(=O)(=O)c1ccc(N=Cc2cc(Cl)cc(Cl)c2O)cc1
inactive: [10] 111 % of control | [18] 102 % of control | [19] 102 % of control

CC(=O)Nc1ccc(Br)c(NC(C)=O)n1
inactive: [1] 109 % of control | [2] 101 % of control | [3] 112 % of control

CC(=O)NCCc1ccc(NCCCc2c(-c3ccccc3)nc(N)[nH]c2=O)cc1
inactive: [10] 97 % of control | [18] 95 % of control | [19] 101 % of control

Cc1cc(C)c(CCO)c(C)c1
inactive: dose: 25.0 mg/kg/injection, schedule: Q01DX009 (ip), vehicle: DMSO 98 % of control | dose: 25.0 mg/kg/injection, schedule: Q04DX003 (ip), vehicle: DMSO 93 % of control | dose: 50.0 mg/kg/injection, schedule: Q01DX009 (ip), vehicle: DMSO 96 % of control | dose: 50.0 mg/kg/injection, schedule: Q04DX003 (ip), vehicle: DMSO 102 % of control | dose: 100.0 mg/kg/injection, schedule: Q04DX003 (ip), vehicle: DMSO 102 % of control

CC/C(=N/O)c1ccccc1
inactive: [15] 110 % of control | [16] 95 % of control | [17] 93 % of control

Cc1cc(Cl)ccc1OCC(=O)NCC(=O)O
inactive: [4] 90 % of control | [5] 97 % of control | [6] 105 % of control

CCOC(=O)C(=Cc1ccc(C=C(C(=O)OCC)C(=O)OCC)cc1)C(=O)OCC
inactive: dose: 50.0 mg/kg/injection, schedule: Q04DX003 (ip), vehicle: Klucel (hydroxypropylcellulose) (HPC) 100 % of control | [20] 100 % of control | [21] 94 % of control

CC(=O)NC1CC2c3ccccc3C1([N+](=O)[O-])c1ccccc12 (centres undefined)
inactive: [12] 107 % of control | [20] 107 % of control | [11] 107 % of control | [13] 101 % of control | [21] 105 % of control | dose: 200.0 mg/kg/injection, schedule: Q04DX003 (ip), vehicle: saline 105 % of control | [14] 97 % of control | dose: 400.0 mg/kg/injection, schedule: Q04DX003 (ip), vehicle: Klucel (hydroxypropylcellulose) (HPC) 97 % of control | dose: 400.0 mg/kg/injection, schedule: Q04DX003 (ip), vehicle: saline 97 % of control
